Patent US20260216109A1, “TREATMENT OF SKIN DISORDERS WITH SHORT CHAIN FATTY ACIDS” (Temple University-Of The Commonwealth System of Higher …, priority 2023, published 2026)

Assays:
[1] = system: imiquimod (IMQ)-induced psoriasis model mice; experiment: Transepidermal water loss (TEWL) on back skin, IMQ-induced psoriasis model in mice; format: in vivo, mouse; conditions: Example 4, day 5, Apremilast 25 mg/kg BID p.o., SCFA fixed dose BID p.o., Etanercept 10 mg/kg Q3D s.c.
Method: Topical application of IMQ, a TLR7/8 ligand and potent immune activator induced and exacerbated psoriasis in mice. The mouse IMQ-induced psoriasis (IMQ Ps) model was initiated by a repeated topical application of Aldara© cream (containing 5% IMQ) over 6 consecutive days. Female Balb/c mice (9 weeks of age at reception, ordered with 20 g, Charles River, Sulzfeld, Germany; n=10 mice/group, exception healthy controls n=4) received daily a topical application of 62.5 mg of commercially available IMQ cream (5% Aldara©) on the beforehand (day −1) shaved (~2 cm×3 cm), depilated (Pilka© cream) back skin, and 7 mg on the outer right ear skin for 6 consecutive days, translating in a daily dose of approximately 3.5 mg IMQ. Healthy control mice were included in the study and were treated with vehicle cream (Vaseline; Bombastus-Werke AG) only instead of IMQ. Additionally, an IMQ disease control group was also included.
Physiological parameter transepidermal water loss (TEWL; in g/m^2/h) was tested and evaluated on back skin at day 5 by a Tewameter (TM300, Courage and Khazaka, Cologne, Germany) during the IMQ psoriasis experiment. TEWL is a common examined parameters for the assessment of a disturbed skin function present in psoriatic skin. TEWL may be used a diagnostic marker in the clinics to accurately assess the disease severity in psoriasis.

IL-27 = experiment: Multiplex (MSD V-PLEX) cytokine release, InflammaSkin: IL-27; format: cell-based, human; conditions: Example 2; 0.05% Betamethasone topical; vs untreated InflammaSkin
Method: A total of 16 biopsies of 15 mm diameter were produced from a single donor. Two NativeSkin® models with 12/15 mm silicon rings were produced from the biopsies according to standard procedures in place, and cultured under cell culture conditions (37° C., 5% CO2, max. humidity) for 7 days with 2 mL of standard NativeSkin® medium renewed every day. Fourteen PSO-InflammaSkin® models with 12/15 mm silicon rings were produced by inducing in situ activation and Th17/Th1 polarization of skin resident T cells with a proprietary cocktail, and cultured under cell culture conditions (37° C., 5% CO2, max. humidity) for 7 days with 2 mL of PSO-InflammaSkin® culture medium renewed every day. […]
(§1) Human pro-inflammatory cytokines released in the supernatant were quantified using the V-PLEX Human IL-17A Kit (MesoScale Discovery, reference: K151RFD-1) and V-PLEX Human custom Pro-inflammatory. […]
(§2) Samples were diluted four times for plate 2 and two times for plate 1. Samples and standards were assessed in duplicate. Plates were read on MesoScale Discovery Quickpleax SQ 120 plate reader and values expressed in pg/mL.
(§3) A statistical analysis was performed. […] First, the distribution's normality of the two compared group was assessed. […] If the two distributions were normal, the homogeneity of variances was assessed using a Fisher test on the variances. […]

TNF-α = experiment: Multiplex (MSD V-PLEX) cytokine release, InflammaSkin: TNF-α; format: cell-based, human; conditions: Example 1; Day 7 supernatant; SCFA (45 μg/mL Ca-propionate + 1 mM Ca-/Mg-butyrate) systemic, 0.05% Betamethasone topical; vs untreated InflammaSkin
Method: (§4) A total of 16 biopsies of 15 mm diameter were produced from a single donor. Two NativeSkin® models with 12/15 mm silicon rings were produced from the biopsies according to standard procedures in place, and cultured under cell culture conditions (37° C., 5% CO2, max. humidity) for 7 days with 2 mL of standard NativeSkin® medium renewed every day. Fourteen PSO-InflammaSkin® models with 12/15 mm silicon rings were produced by inducing in situ activation and Th17/Th1 polarization of skin resident T cells with a proprietary cocktail, and cultured under cell culture conditions (37° C., 5% CO2, max. humidity) for 7 days with 2 mL of PSO-InflammaSkin® culture medium renewed every day.
(§5) From Day 1 to Day 6, models were systemically treated with 1 μM Otezla or Short Chain Fatty Acids (SCFAs), or topically treated with positive control 0.05% Betamethasone
(§6) In these experiments, the SCFAs administered were 45 μg/mL of Ca-propionate and 1 mM mixture of salts (Ca-butyrate and Mg-butyrate).
At Day 7, supernatants were collected and stored at −80° C. and skin models of all conditions were carefully unmolded. Skin biopsies were re-punched to eliminate the area under the silicon ring, fixed in 10% buffered formalin and processed for paraffin wax embedding.
Human pro-inflammatory cytokines released in the supernatant were quantified using the V-PLEX Human IL-17A Kit (MesoScale Discovery, reference: K151RFD-1) and V-PLEX Human TNFα Kit (MesoScale Discovery, reference: K151QWD-1). Values are expressed in pg/mL. For each condition, single values, mean and SEM were plotted using GraphPad Prism. Statistical analysis was performed using a One Way ANOVA test.
PSO-InflammaSkin® models were cultured and treated as described in Example 1. In these experiments, the SCFAs administered were 45 μg/mL of Ca-propionate and 1 mM mixture of salts (Ca-butyrate and Mg-butyrate).
Human pro-inflammatory cytokines released in the supernatant were quantified using the V-PLEX Human IL-17A Kit (MesoScale Discovery, reference: K151RFD-1) and V-PLEX Human custom Pro-inflammatory. Plate 1 comprised Proinflammatory Panel 1 (human) kit reference K15049 (panel IFN-γ and TNF-α). Plate 2 comprised TH17 Panel 1 (human) kit reference K15049 (panel IL-17A Gen B, IL-21, IL-22, IL-23, IL-27, IL-31, MIP-3α).
as §2
A statistical analysis was performed. Each condition was compared to the untreated InflammaSkin® condition. First, the distribution's normality of the two compared group was assessed. […] If the two distributions were normal, the homogeneity of variances was assessed using a Fisher test on the variances. […]

IL-17A = experiment: Multiplex (MSD V-PLEX) cytokine release, InflammaSkin: IL-17A; format: cell-based, human; conditions: Example 1; Day 7 supernatant; 1 μM Otezla or SCFA (45 μg/mL Ca-propionate + 1 mM Ca-/Mg-butyrate) systemic, 0.05% Betamethasone topical; vs untreated InflammaSkin
Method: as §4, §5, §6
At Day 7, supernatants were collected and stored at −80° C. and skin models of all conditions were carefully unmolded. […]
Human pro-inflammatory cytokines released in the supernatant were quantified using the V-PLEX Human IL-17A Kit (MesoScale Discovery, reference: K151RFD-1) and V-PLEX Human TNFα Kit (MesoScale Discovery, reference: K151QWD-1). […]
as §1, §2, §3

| Compound | transepidermal water loss (TEWL) [1] | increase of IL-27 cytokine secretion (IL-27) | TNF-α levels decreased by (TNF-α) | IL-17A levels decreased by (IL-17A) |
| --- | --- | --- | --- | --- |
| Etanercept | did not show significant effects | – | – | – |
| C[C@H]1C[C@H]2[C@@H]3CCC4=CC(=O)C=C[C@]4(C)[C@@]3(F)[C@@H](O)C[C@]2(C)[C@@]1(O)C(=O)CO [Betamethasone] | – | about 30% | ~ 40% | about 70% |
